Source: paper PMC10620772, “Design, synthesis, and biological evaluation of new pyrimidine-5-carbonitrile derivatives as novel anti-cancer, dual EGFR^WT/COX-2 inhibitors with docking studies” (RSC Advances, 2023)

Legend:
Type in all cases: cell-based, human
CCRF-CEM = assay: NCI60 antitumor screening; conditions: 10 μM one-dose
HL-60(TB) = assay: NCI60 antitumor screening; conditions: 10 μM one-dose
K-562 = assay: NCI60 antitumor screening; conditions: 10 μM one-dose
MOLT-4 = assay: NCI60 antitumor screening; conditions: 10 μM one-dose
RPMI-8226 = assay: NCI60 antitumor screening; conditions: 10 μM one-dose
SR = assay: NCI60 antitumor screening; conditions: 10 μM one-dose
A549/ATCC = assay: NCI60 antitumor screening; conditions: 10 μM one-dose
EKVX = assay: NCI60 antitumor screening; conditions: 10 μM one-dose
HOP-62 = assay: NCI60 antitumor screening; conditions: 10 μM one-dose
HOP-92 = assay: NCI60 antitumor screening; conditions: 10 μM one-dose
NCI-H226 = assay: NCI60 antitumor screening; conditions: 10 μM one-dose
NCI-H23 = assay: NCI60 antitumor screening; conditions: 10 μM one-dose
NCI-H322M = assay: NCI60 antitumor screening; conditions: 10 μM one-dose
NCI-H460 = assay: NCI60 antitumor screening; conditions: 10 μM one-dose
NCI-H522 = assay: NCI60 antitumor screening; conditions: 10 μM one-dose
COLO 205 = assay: NCI60 antitumor screening; conditions: 10 μM one-dose
HCC-2998 = assay: NCI60 antitumor screening; conditions: 10 μM one-dose
HCT-116 = assay: NCI60 antitumor screening; conditions: 10 μM one-dose
HCT-15 = assay: NCI60 antitumor screening; conditions: 10 μM one-dose
HT29 = assay: NCI60 antitumor screening; conditions: 10 μM one-dose
KM12 = assay: NCI60 antitumor screening; conditions: 10 μM one-dose
SW-620 = assay: NCI60 antitumor screening; conditions: 10 μM one-dose
SF-268 = assay: NCI60 antitumor screening; conditions: 10 μM one-dose
SF-295 = assay: NCI60 antitumor screening; conditions: 10 μM one-dose
SF-539 = assay: NCI60 antitumor screening; conditions: 10 μM one-dose
SNB-19 = assay: NCI60 antitumor screening; conditions: 10 μM one-dose
SNB-75 = assay: NCI60 antitumor screening; conditions: 10 μM one-dose
U251 = assay: NCI60 antitumor screening; conditions: 10 μM one-dose
LOX IMVI = assay: NCI60 antitumor screening; conditions: 10 μM one-dose
MALME-3M = assay: NCI60 antitumor screening; conditions: 10 μM one-dose
M14 = assay: NCI60 antitumor screening; conditions: 10 μM one-dose
MDA-MB-435 = assay: NCI60 antitumor screening; conditions: 10 μM one-dose
SK-MEL-2 = assay: NCI60 antitumor screening; conditions: 10 μM one-dose
SK-MEL-28 = assay: NCI60 antitumor screening; conditions: 10 μM one-dose
SK-MEL-5 = assay: NCI60 antitumor screening; conditions: 10 μM one-dose
UACC-257 = assay: NCI60 antitumor screening; conditions: 10 μM one-dose
UACC-62 = assay: NCI60 antitumor screening; conditions: 10 μM one-dose
IGROV1 = assay: NCI60 antitumor screening; conditions: 10 μM one-dose
OVCAR-3 = assay: NCI60 antitumor screening; conditions: 10 μM one-dose
OVCAR-4 = assay: NCI60 antitumor screening; conditions: 10 μM one-dose
OVCAR-5 = assay: NCI60 antitumor screening; conditions: 10 μM one-dose
OVCAR-8 = assay: NCI60 antitumor screening; conditions: 10 μM one-dose
NCI/ADR-RES = assay: NCI60 antitumor screening; conditions: 10 μM one-dose
SK-OV-3 = assay: NCI60 antitumor screening; conditions: 10 μM one-dose
786–0 = assay: NCI60 antitumor screening; conditions: 10 μM one-dose
A498 = assay: NCI60 antitumor screening; conditions: 10 μM one-dose
ACHN = assay: NCI60 antitumor screening; conditions: 10 μM one-dose
CAKI-1 = assay: NCI60 antitumor screening; conditions: 10 μM one-dose
RXF 393 = assay: NCI60 antitumor screening; conditions: 10 μM one-dose
SN12C = assay: NCI60 antitumor screening; conditions: 10 μM one-dose
TK-10 = assay: NCI60 antitumor screening; conditions: 10 μM one-dose
UO-31 = assay: NCI60 antitumor screening; conditions: 10 μM one-dose
PC-3 = assay: NCI60 antitumor screening; conditions: 10 μM one-dose
DU-145 = assay: NCI60 antitumor screening; conditions: 10 μM one-dose
MCF7 = assay: NCI60 antitumor screening; conditions: 10 μM one-dose
MDA-MB-231/ATCC = assay: NCI60 antitumor screening; conditions: 10 μM one-dose
HS 578T = assay: NCI60 antitumor screening; conditions: 10 μM one-dose
BT-549 = assay: NCI60 antitumor screening; conditions: 10 μM one-dose
T-47D = assay: NCI60 antitumor screening; conditions: 10 μM one-dose
MDA-MB-468 = assay: NCI60 antitumor screening; conditions: 10 μM one-dose
NCI60 cell lines panel = assay: NCI60 antitumor screening, full panel; conditions: 10 μM one-dose, mean over NCI60
Protocol: The National Cancer Institute (NCI), Bethesda, Maryland, United States, selected all of the novel synthesized compounds (2b–d, 3a–d and 4a–p) for in vitro antitumor screening at a single concentration of 10 μM toward the NCI60 cell lines panel covering leukaemia, non-small cell lungs, colon, central nervous system (CNS), melanoma, ovarian, renal, prostate, and breast cancer cells.[32–35] The data were reported as a mean graph of the percent growth of the treated cell lines and expressed as percentage growth inhibition (GI%) in Table 1 and ESI 1.
(2) The molar concentration of the compound responsible for total growth inhibition, also known as total growth inhibition (TGI).
Regarding subpanel selectivity toward certain cancer type, the method of determining a compound's selectivity index is to divide the full panel MG-MID (μM) value by each single subpanel. Values above six indicate high selectivity against the subpanel; moderate selectivity is denoted by values between three and six. Conversely, compounds are termed nonselective if their selectivity is less than three.[30,37]

## N#Cc1c(Cl)nc(SCc2ccc([N+](=O)[O-])cc2)nc1-c1ccc(F)cc1 [3c, 4-Chloro-6-(4-fluorophenyl)-2-((4-nitrobenzyl)thio) pyrimidine-5-carbonitrile]
CCRF-CEM
  GI%: 32.30%
HL-60(TB)
  GI%: 57.98%
K-562
  GI%: 44.30%
MOLT-4
  GI%: 38.07%
RPMI-8226
  GI%: 41.51%
SR
  GI%: — (GI% < 10)
A549/ATCC
  GI%: 33.50%
EKVX
  GI%: 20.38%
HOP-62
  GI%: — (GI% < 10)
HOP-92
  GI%: 45.40%
NCI-H226
  GI%: 46.54%
NCI-H23
  GI%: 12.20%
NCI-H322M
  GI%: 13.28%
NCI-H460
  GI%: 13.48%
NCI-H522
  GI%: 37.48%
COLO 205
  GI%: 22.66%
HCC-2998
  GI%: 12.17%
HCT-116
  GI%: 40.70%
HCT-15
  GI%: 45.64%
HT29
  GI%: 61.63%
KM12
  GI%: 27.77%
SW-620
  GI%: 37.21%
SF-268
  GI%: 18.20%
SF-295
  GI%: 29.81%
SF-539
  GI%: 28.21%
SNB-19
  GI%: 10.67%
SNB-75
  GI%: — (GI% < 10)
U251
  GI%: 31.17%
LOX IMVI
  GI%: 14.22%
MALME-3M
  GI%: — (GI% < 10)
M14
  GI%: 12.41%
MDA-MB-435
  GI%: — (GI% < 10)
SK-MEL-2
  GI%: — (GI% < 10)
SK-MEL-28
  GI%: — (GI% < 10)
SK-MEL-5
  GI%: 22.36%
UACC-257
  GI%: 24.66%
UACC-62
  GI%: 22.80%
IGROV1
  GI%: — (GI% < 10)
OVCAR-3
  GI%: 13.71%
OVCAR-4
  GI%: 18.42%
OVCAR-5
  GI%: — (GI% < 10)
OVCAR-8
  GI%: 16.16%
NCI/ADR-RES
  GI%: 27.59%
SK-OV-3
  GI%: 11.73%
786–0
  GI%: 21.29%
A498
  GI%: — (GI% < 10)
ACHN
  GI%: 14.60%
CAKI-1
  GI%: 32.89%
RXF 393
  GI%: 29.76%
SN12C
  GI%: 29.81%
TK-10
  GI%: — (GI% < 10)
UO-31
  GI%: 32.10%
PC-3
  GI%: 57.37%
DU-145
  GI%: 24.93%
MCF7
  GI%: 27.06%
MDA-MB-231/ATCC
  GI%: — (GI% < 10)
HS 578T
  GI%: 13.31%
BT-549
  GI%: 43.62%
T-47D
  GI%: 68.67%
MDA-MB-468
  GI%: 19.68%
NCI60 cell lines panel
  Mean GI%: 23.91%
